Results on 17 molecules are retold here after ChEMBL document CHEMBL1201862, “PubChem BioAssay data set” (2004).

Active and inactive are the calls of the source.

A short description of experiment [1]: activation of miR-122 Renilla sensor silencing – cell-based, Huh7 psiCHECK-miR122, Renilla luciferase, cherry-picked, dose response (AID 651956).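 Note: huh7 hepatoma cells stably carrying a psiCHECK-2 miR-122 sensor plasmid; renilla luciferase signal reporting endogenous miR-122 activity after 48 h compound exposure.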 It counts as functional.
The target of experiment [2] is Paired box protein Pax-8 (Homo sapiens, UniProt Q06710). Description: PAX8 transcriptional activity inhibition in RMG-I – RMG-I cells, luciferase, cherry-pick, dose response (AID 687027).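 Note: luciferase reporter driven by Pax8 target thyroperoxidase promoter measured by SteadyGlo luminescence.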 It is filed as functional, cell-based.
Paired box protein Pax-8, sequence (Q06710 whole entry): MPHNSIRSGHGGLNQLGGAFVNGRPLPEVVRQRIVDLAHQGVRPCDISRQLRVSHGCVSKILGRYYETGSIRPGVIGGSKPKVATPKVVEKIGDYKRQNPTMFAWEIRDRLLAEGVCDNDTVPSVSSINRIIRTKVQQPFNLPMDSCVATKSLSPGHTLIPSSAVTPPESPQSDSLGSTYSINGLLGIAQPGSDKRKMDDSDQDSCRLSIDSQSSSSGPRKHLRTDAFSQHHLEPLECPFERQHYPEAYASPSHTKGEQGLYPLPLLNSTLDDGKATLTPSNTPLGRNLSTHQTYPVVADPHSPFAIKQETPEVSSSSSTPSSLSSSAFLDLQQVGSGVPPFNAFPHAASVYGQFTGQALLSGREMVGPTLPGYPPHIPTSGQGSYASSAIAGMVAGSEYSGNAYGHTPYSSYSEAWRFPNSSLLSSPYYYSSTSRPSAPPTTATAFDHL
Experiment [3] is described as follows: general mammalian cell viability loss – activator set, cherry-pick, cytotoxicity control for miR-122 modulator project, dose response (AID 720690).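 Note: HEK293T human cells scored for general mammalian cytotoxicity.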 It counts as functional, cell-based.
Experiment [4] in a line: OVCAR8 cell viability loss – plate reader, dry powder samples, PAX8 project, dose response (AID 743197). It is filed as functional, cell-based. The note with it: OVCAR-8.
Experiment [5] can be described thus: HEK-293T viability loss after treatment – luminescence, T-cell screen hits, cytotoxicity control for TCR NF-kB inhibitor project, dose response (AID 489026).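 Note: cells exposed to compound about 14 hours before the viability readout.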 It is filed as functional, cell-based.
Experiment [6] concerns A549. Put plainly: viability loss in A549 cells – cell-based, plate reader, cherry-pick samples, cytotoxicity control, dose response (AID 687028). It is filed as functional. The note with it: Homo sapiens.
The test system of experiment [7] is HeLa. Put plainly: viability loss in HeLa cells – cell-based, ATP luminescence, cherry-pick samples, cytotoxicity control, dose response (AID 687004). It counts as functional. As to conditions: Homo sapiens.
The test system of experiment [8] is HEK293. Put plainly: viability loss in HEK293T cells – cell-based, ATP luminescence, cherry-pick samples, cytotoxicity control, dose response (AID 687005).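 Note: cells exposed to compound for 48 hours.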 It is filed as functional. As to conditions: Homo sapiens.
The nature of experiment [9]: HEK293 Cytotoxicity Assay Measured in Cell-Based System Using Plate Reader - 7071-01_Inhibitor_Dose_CherryPick_Activity_Set2. It is filed as functional.
The nature of experiment [10]: blockers of HIV-1 envelope-mediated cell-cell fusion – cherry-pick, dose response (AID 652057). It counts as functional, cell-based.
Experiment [11] relates to HepG2. Put plainly: viability loss in HepG2 hepatoma cells – cell-based, cherry-picks, set 2, cytotoxicity control, dose response (AID 687002). The note with it: Homo sapiens. It is filed as functional.
Experiment [12] in a line: HIV-1 AD8 envelope cell-cell fusion blockers – cherry-pick, dose response (AID 652062).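 Note: luciferase signal from cell-cell fusion driven by HIV-1 clade B AD8 Env; potency is for inhibitors of fusion seen as a drop in luminescence.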 It is filed as functional, cell-based.
For experiment [13], the target named is Scavenger receptor class B member 1 (Mus musculus, UniProt Q61009). Description: blockers of DiI-HDL lipid transfer via SR-BI – cell-based, ldlA[mSR-BI] CHO, DiI fluorescence, dry powder, set 10, dose response (AID 624029). It counts as functional.
Scavenger receptor class B member 1, sequence (Q61009 whole entry): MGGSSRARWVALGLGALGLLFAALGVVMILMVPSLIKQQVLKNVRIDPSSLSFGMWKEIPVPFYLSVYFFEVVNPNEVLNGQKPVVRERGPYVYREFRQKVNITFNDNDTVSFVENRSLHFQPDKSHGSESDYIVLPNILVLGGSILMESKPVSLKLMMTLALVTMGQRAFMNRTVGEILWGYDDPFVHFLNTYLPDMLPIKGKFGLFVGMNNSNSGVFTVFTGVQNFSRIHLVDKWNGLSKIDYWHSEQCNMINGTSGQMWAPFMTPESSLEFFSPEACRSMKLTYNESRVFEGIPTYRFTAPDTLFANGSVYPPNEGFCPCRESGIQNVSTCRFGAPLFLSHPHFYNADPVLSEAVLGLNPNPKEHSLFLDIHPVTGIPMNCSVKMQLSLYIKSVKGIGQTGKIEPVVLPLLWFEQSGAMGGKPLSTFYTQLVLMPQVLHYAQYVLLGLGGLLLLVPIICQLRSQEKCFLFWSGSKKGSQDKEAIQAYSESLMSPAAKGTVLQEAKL
Experiment [14] can be described thus: human cervical cancer cell viability loss – 24 h, plate reader, dry powder, cytotoxicity control, dose response (AID 686928). It counts as functional, cell-based. As to conditions: HeLa.
The target in experiment [15] is Delta-type opioid receptor (Homo sapiens, UniProt P41143). Put plainly: Late-stage results from the probe development effort to identify antagonists of OPRK1: fluorescence-based cell-based dose response OPRD1 counterscreen. It is filed as functional.
Experiment [16] addresses Mu-type opioid receptor (Homo sapiens, UniProt P35372). Description: Late-stage results from the probe development effort to identify antagonists of OPRK1: luminescence-based cell-based dose response OPRM1 counterscreen. It counts as functional.
The target of experiment [17] is Beta-lactamase (Salmonella choleraesuis (strain SC-B67), UniProt Q5J463). Put plainly: Epi-absorbance-based counterscreen for selective VIM-2 inhibitors: dose response biochemical high throughput screening assay to identify inhibitors of TEM-1 serine-beta-lactamase.
Beta-lactamase (Salmonella choleraesuis (strain SC-B67), UniProt Q5J463), sequence (Q5J463 whole entry): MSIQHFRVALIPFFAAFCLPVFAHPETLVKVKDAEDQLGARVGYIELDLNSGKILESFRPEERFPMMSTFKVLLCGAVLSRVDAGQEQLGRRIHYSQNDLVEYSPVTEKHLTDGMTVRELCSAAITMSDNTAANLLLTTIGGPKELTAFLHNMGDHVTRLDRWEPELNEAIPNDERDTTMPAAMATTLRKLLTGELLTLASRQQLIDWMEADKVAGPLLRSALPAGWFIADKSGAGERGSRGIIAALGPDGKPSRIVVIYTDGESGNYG
Experiment [18] addresses T1, Beta-lactamase (Pseudomonas aeruginosa, UniProt Q79MP6). Put plainly: inhibition of IMP-1 beta-lactamase activity – biochemical, epi-absorbance, selectivity assay for VIM-2 inhibitor project, dose response (AID 1920).
Experiment [19] deals with T1, Beta-lactamase. Put plainly: […] counterscreen for selective VIM-2 inhibitors: dose response biochemical high throughput screening assay to identify inhibitors of IMP-1 metallo-beta-lactamase.
Experiment [20] addresses T2, Sentrin-specific protease 8 (Homo sapiens, UniProt Q96LD8).
T2 sequence (Q96LD8 whole entry): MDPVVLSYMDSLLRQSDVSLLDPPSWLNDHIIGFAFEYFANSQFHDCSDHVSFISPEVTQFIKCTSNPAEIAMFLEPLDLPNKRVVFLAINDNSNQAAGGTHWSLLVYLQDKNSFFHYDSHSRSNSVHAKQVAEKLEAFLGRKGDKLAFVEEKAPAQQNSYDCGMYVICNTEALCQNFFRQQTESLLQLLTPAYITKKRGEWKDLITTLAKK
It counts as functional.

Experiment [21] has as its target T2, Sentrin-specific protease 8. It counts as functional. The source holds these as a separate data set.
The target of experiment [22] is T3, Caspase-3 (Homo sapiens, UniProt P42574).
T3 sequence (P42574 whole entry): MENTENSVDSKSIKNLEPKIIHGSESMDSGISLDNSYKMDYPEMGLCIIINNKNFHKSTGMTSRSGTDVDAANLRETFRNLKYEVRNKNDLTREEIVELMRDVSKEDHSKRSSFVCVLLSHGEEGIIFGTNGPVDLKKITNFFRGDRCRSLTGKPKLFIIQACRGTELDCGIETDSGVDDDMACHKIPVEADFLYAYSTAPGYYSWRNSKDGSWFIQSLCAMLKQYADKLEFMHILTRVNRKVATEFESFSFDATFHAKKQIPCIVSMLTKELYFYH
Put plainly: Dose-response confirmation of uHTS inhibitor hits of Sentrin-Specific Protease 8 in a Caspase-3 Fluorescence assay. It counts as functional.

A short description of experiment [23]: microbe, parasite or virus in culture. It is filed as functional. The note with it: Mycobacterium tuberculosis.
In experiment [24] the target is Protein Wnt-3a (Mus musculus, UniProt P27467). Put plainly: antagonism of Wnt3a pathway luciferase reporter – Wnt-LIGHT cells, luminescence, selectivity assay for Gli-SUFU antagonist project, dose response (AID 651570).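 Note: Wnt-LIGHT reporter cells stimulated with conditioned medium from Wnt3a-producing cells.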 It counts as functional. The note with it: read-out: IC50_Mean.
Protein Wnt-3a, sequence (P27467 whole entry): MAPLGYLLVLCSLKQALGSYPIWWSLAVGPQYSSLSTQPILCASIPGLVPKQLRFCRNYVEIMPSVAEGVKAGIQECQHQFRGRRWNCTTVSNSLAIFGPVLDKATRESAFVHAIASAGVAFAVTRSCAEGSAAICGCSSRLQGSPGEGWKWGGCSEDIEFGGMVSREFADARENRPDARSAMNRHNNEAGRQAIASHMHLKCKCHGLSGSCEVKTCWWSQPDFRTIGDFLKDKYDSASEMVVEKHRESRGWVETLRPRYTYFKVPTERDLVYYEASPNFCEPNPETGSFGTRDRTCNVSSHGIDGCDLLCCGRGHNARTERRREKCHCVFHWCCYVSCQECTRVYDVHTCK
The target in experiment [25] is Matrix metalloproteinase-14 (Homo sapiens, UniProt P50281). Description: Dose Response confirmation of uHTS hits for a small molecule inhibitors of MT1-MMP activation in a fluorescence assay set 1. It counts as functional.
Experiment [26] can be described thus: potency of ADAM10 substrate cleavage blockers – biochemical, QFRET, dose response (AID 743254).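 Note: ADAM10 enzyme with the DM2 quenched FRET peptide as substrate; EDANS fluorescence gain as the protease cuts the substrate; inhibitor potency against ADAM10 proteolytic activity.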
In experiment [27] the target is T4, Disintegrin and metalloproteinase domain-containing protein 17 (Homo sapiens, UniProt P78536). Put plainly: exosite inhibitors of ADAM17, dose response, biochemical (AID 743260).
T4 sequence (P78536 whole entry, the tested form may be a part): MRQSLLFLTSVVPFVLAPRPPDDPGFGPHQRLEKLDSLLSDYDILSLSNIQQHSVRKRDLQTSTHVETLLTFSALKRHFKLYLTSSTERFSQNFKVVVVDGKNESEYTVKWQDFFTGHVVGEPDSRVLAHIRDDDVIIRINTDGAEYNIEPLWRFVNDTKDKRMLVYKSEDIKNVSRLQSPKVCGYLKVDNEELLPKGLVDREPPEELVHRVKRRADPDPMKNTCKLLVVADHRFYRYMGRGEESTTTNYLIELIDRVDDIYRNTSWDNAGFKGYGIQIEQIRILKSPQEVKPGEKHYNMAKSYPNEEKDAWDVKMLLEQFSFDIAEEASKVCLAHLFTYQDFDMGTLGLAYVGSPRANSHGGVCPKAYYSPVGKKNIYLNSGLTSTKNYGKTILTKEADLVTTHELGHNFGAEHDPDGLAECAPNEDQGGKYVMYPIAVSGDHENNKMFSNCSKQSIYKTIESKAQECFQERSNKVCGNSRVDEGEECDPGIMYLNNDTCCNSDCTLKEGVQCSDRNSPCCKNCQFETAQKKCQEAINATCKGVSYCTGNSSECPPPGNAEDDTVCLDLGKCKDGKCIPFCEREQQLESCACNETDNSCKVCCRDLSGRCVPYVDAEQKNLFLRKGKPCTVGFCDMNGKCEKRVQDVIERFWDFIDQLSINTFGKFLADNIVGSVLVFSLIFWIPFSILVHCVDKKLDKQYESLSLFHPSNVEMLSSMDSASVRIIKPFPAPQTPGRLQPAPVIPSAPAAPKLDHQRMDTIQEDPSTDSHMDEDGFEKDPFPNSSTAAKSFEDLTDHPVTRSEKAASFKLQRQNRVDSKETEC
Experiment [28] has as its target T4, Disintegrin and metalloproteinase domain-containing protein 17. Description: inhibition of ADAM17 substrate cleavage – biochemical, quenched FRET substrate, counter-screen for ADAM10 exosite inhibitor project, dose response (AID 743253).
Experiment [29] has as its target Potassium channel subfamily K member 9 (Homo sapiens, UniProt Q9NPC2). Put plainly: KCNK9 flux blockade, concentration-response – cell-based, FluxOR thallium flux, selectivity assay for TASK1 inhibitor project, SAR follow-up (AID 652211).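 Note: potency is for inhibitors of the channel.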 It counts as functional.
For experiment [30], the target named is Potassium channel subfamily K member 3 (Rattus norvegicus, UniProt O54912). Put plainly: SAR analysis for the identification of selective inhibitors of the two-pore domain potassium channel TASK1(KCNK3):Automated Electrophysiology. It counts as functional.
Potassium channel subfamily K member 3 (Rattus norvegicus, UniProt O54912), sequence (O54912 whole entry, the tested form may be a part): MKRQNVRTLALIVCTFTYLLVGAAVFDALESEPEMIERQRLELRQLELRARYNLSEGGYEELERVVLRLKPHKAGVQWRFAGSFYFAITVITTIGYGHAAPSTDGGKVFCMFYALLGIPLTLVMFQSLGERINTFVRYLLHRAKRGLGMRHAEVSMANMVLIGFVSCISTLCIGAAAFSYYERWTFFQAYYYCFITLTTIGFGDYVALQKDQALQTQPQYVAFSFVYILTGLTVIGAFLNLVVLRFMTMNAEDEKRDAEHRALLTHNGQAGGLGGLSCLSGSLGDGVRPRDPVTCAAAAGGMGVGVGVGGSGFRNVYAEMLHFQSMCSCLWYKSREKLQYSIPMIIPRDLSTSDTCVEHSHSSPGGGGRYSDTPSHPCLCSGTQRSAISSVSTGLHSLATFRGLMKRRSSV
For experiment [31], the target named is Potassium channel subfamily K member 3 (Homo sapiens, UniProt O14649). Description: inhibition of human KCNK3 channel flux – CHO cells, FluxOR thallium flux, SAR follow-up (AID 652212). It is filed as functional.
Potassium channel subfamily K member 3 (Homo sapiens, UniProt O14649), sequence (O14649 whole entry): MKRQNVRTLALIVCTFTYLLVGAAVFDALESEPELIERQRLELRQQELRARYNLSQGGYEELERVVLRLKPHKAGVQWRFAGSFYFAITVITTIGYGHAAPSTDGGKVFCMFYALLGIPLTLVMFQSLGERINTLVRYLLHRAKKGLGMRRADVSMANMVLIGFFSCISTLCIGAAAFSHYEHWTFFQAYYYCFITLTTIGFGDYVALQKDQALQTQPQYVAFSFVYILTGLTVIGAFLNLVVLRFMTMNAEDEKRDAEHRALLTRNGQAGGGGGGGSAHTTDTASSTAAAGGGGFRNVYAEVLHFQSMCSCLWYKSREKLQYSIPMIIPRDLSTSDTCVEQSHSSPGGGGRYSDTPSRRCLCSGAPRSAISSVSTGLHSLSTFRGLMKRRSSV
The nature of experiment [32]: T. cruzi growth inhibition in host cells, dose response, cell-based, plate reader, dry powder, set 2 (AID 652275). It is filed as functional.
A short description of experiment [33]: viability loss in HepG2 hepatoma cells – cell-based, ATP luminescence, cherry-pick, activator set 2, cytotoxicity control, dose response (AID 1053143). It is filed as functional.
The nature of experiment [34]: A Cell-Based Confirmatory Screen for Compounds that Inhibit VEEV, TC-83 (7). It is filed as functional.
Experiment [35] concerns the target Metabotropic glutamate receptor 3 (Rattus norvegicus, UniProt P31422). Description: inhibitors of rat mGlu3 Galpha15 signaling – TREx293 cells, calcium flux, mGlu3 NAM project, dose response (AID 651840). It counts as functional.
Experiment [36] is described as follows: Counterscreen for […] of the human trace amine associated receptor 1 (TAAR1): Fluorescence-based cell-based high throughput dose response assay to identify nonselective Ga16 agonists. It is filed as functional.
The target in experiment [37] is T5, Trace amine-associated receptor 1 (Homo sapiens, UniProt Q96RJ0).
T5 sequence (Q96RJ0 whole entry): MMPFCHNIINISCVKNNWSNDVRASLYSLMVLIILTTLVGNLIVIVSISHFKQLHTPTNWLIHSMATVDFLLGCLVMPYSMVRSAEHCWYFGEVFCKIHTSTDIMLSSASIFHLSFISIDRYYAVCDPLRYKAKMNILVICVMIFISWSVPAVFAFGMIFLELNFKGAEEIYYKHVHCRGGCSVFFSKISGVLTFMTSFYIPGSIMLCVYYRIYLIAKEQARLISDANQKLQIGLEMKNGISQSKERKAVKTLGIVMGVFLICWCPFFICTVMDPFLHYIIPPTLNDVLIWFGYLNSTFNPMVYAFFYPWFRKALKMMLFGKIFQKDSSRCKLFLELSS
Description: Fluorescence-based cell-based high throughput dose response assay to identify antagonists of the human trace amine associated receptor 1 (TAAR1). It counts as functional.

Experiment [38] in a line: Counterscreen for antagonists of the human trace amine associated receptor 1 (hTAAR1): Fluorescence-based cell-based high throughput dose response assay to identify nonselective Ga16 antagonists. It counts as functional.
Experiment [39] concerns the target T5, Trace amine-associated receptor 1. Description: Counterscreen for antagonists of the human trace amine associated receptor 1 (hTAAR1): Fluorescence-based cell-based high throughput dose response assay to identify TAAR1 Agonists. It counts as functional.

T1 sequence (Q79MP6 whole entry): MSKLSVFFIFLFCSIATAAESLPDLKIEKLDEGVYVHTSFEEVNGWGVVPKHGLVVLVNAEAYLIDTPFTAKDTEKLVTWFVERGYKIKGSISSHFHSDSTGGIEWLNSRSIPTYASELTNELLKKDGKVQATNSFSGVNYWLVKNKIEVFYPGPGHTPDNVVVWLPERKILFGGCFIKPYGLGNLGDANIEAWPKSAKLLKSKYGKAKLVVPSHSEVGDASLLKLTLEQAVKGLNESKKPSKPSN
Mu-type opioid receptor, sequence (P35372 whole entry): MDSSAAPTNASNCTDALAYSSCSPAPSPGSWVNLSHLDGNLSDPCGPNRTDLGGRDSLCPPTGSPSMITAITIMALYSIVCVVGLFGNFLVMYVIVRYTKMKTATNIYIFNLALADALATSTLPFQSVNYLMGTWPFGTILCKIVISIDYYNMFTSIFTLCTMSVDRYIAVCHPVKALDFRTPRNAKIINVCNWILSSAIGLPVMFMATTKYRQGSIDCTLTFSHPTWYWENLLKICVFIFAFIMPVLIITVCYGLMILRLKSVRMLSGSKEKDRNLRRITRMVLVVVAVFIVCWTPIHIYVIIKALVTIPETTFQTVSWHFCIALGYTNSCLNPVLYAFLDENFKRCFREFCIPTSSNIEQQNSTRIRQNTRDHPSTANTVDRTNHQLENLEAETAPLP
Metabotropic glutamate receptor 3, sequence (P31422 whole entry): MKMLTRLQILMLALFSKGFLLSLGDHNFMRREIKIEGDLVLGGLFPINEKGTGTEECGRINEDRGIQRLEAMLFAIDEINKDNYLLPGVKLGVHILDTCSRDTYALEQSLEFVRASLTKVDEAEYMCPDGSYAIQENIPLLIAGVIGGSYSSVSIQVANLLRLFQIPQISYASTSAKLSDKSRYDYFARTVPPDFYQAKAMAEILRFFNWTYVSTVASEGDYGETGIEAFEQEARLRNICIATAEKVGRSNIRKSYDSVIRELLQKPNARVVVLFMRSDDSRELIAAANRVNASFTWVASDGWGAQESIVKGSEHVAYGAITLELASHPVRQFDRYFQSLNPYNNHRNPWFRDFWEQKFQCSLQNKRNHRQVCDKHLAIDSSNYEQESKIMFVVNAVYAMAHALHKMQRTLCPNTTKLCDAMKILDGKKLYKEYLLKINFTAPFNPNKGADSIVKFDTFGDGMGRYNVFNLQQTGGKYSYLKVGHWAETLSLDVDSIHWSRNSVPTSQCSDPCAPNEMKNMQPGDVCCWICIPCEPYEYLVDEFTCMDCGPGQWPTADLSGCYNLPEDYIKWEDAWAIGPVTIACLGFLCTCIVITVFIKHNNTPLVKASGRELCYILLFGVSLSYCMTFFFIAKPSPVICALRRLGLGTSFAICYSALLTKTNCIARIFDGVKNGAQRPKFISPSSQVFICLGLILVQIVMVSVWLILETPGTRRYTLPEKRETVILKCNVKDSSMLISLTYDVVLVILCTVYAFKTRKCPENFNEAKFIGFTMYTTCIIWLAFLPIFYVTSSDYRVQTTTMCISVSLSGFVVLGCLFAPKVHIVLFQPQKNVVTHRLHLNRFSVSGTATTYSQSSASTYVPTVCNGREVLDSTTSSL

Regarding `C[C@@H]1CN([C@@H](C)CO)C(=O)Cc2cc(NC(=O)Nc3ccc(C(F)(F)F)cc3)ccc2O[C@H]1CN(C)Cc1ccc(Oc2ccccc2)cc1`, the AC50 in [1] was 19.9 µM (active); in [2] it was 10.3 µM (active); in experiment [3], 19.9 µM (active); in experiment [4] it was 39.9 µM (active).
On to `Oc1cc(-c2cccc(F)c2)nc2ccccc12`, for which the IC50 in experiment [5] was > 80 µM (inactive). Besides, the AC50 in experiment [6] was 18.8 µM (active).
Turning to `Cc1noc(C)c1NC(=O)Nc1ccc2c(c1)C(=O)N(C)[C@@H]1CC[C@H](CC(=O)N[C@H]3CCN(Cc4ccccc4)C3)O[C@@H]1CO2`, the results for the AC50 in experiment [7], in experiment [8] and in [9] were > 47 µM (inactive), 29.7 µM (active) and 29.7 µM (active), respectively.
For `C[C@H](CO)N1C[C@H](C)[C@H](CN(C)Cc2ccccc2F)Oc2cc(C3=CCCC3)ccc2S1(=O)=O`, the AC50 in experiment [10] was 22.8 µM (active); in experiment [11], 19.4 µM (active); in experiment [8] it was 18.8 µM (active); in [12], 24.4 µM (active); in experiment [9] it was 18.8 µM (active).
Take `CC(C)NC(=O)Nc1ccc2c(c1)C(=O)N([C@@H](C)CO)C[C@@H](C)[C@H](CN(C)S(=O)(=O)c1ccc(Cl)cc1)O2`: the AC50 in experiment [13] is 0.154 µM (active).
Regarding `O=C(Nc1nnc(-c2ccc3c(c2)OCCO3)o1)C(F)(F)c1ccccc1`, the AC50 in [14] is > 200 µM (inactive).
On to `COC(=O)c1cc(Br)cnc1N1CCC(NC2CCCCC2)C1` (stereo unspecified), for which the IC50 was > 50 µM (inactive) in experiment [15] and 20 µM (inactive) in [16].
As for `O=C(c1ccco1)N1N=C(c2ccc(Cl)cc2)CC1c1ccco1` (stereo unspecified), the IC50 in experiment [17], in experiment [18] and in [19] was > 59.6 µM (inactive) throughout.
Take `O=C(Cn1nc(Cc2ccncc2)c2ccccc2c1=O)N1CCc2ccccc2C1`: the IC50 is 6.46 µM (active) in experiment [20], 3.48 µM (active) in experiment [21] and 13.3 µM (active) in experiment [22].
As to `COc1ccccc1C(=O)NC(=S)/C=C1/N(C)c2ccccc2C1(C)C`, the CC50 in experiment [23] was > 40 µM (active). For the same molecule, the values for the IC50 in [24] and in experiment [25] were 15.2 µM (active) and > 80 µM (inactive), respectively.
On to `O=C(NCC1CCCO1)C(c1cccs1)N(Cc1ccccc1)C(=O)c1ccc(-c2ccccc2)[nH]1` (stereo unspecified), for which the IC50 in experiment [26], in [27] and in experiment [28] was > 69.5 µM (inactive) throughout.
As to `CCOc1ccccc1NC(=O)c1cccc(NC(=O)c2cccc(Cl)c2)c1`, the values for the IC50 in experiment [29], in experiment [30] and in [31] were 1.84 µM (active), 2.86 µM (active) and 0.039 µM (active), respectively.
With `O=C(CN1CCOCC1)N1CCCCN2[C@@H](CO)[C@H](c3ccc(Br)cc3)[C@@H]2C1`, the AC50 in experiment [32] was 7.96 µM (active).
In the case of `Cc1cc2nn(-c3ccc(Cl)cc3)nc2cc1N`, in experiment [33], the AC50 was 21.4 µM (active).
For `CN1CCN(C)/C(=N/c2ccc(C#N)cc2C(=O)Nc2ccccc2)C1`, the IC50 in experiment [34] is 0.38 µM (active).
As for `COc1ccc(C#Cc2ccc(C(=O)N3CCCC(O)(Cc4ccccc4)C3)cc2)cc1` (stereo unspecified), the IC50 in [35] was 8.87 µM (active).
Regarding `Cc1ccc(/C=N/NC(=O)c2ccccc2OCc2cccc(Br)c2)o1`, the EC50 in experiment [36] and in experiment [39] was > 29.9 µM (inactive) throughout. Further, the results for the IC50 in experiment [37] and in experiment [38] were 3.69 µM (active) and > 29.9 µM (inactive), respectively.
